Data taken from PMC3106415 (Bioorganic & medicinal chemistry, 2010).

What was measured:
rat A2A AR = rat A2A AR (Rattus norvegicus, UniProt P30543); test: Radioligand binding to rA2A AR
rA2A receptor = settings: read-out: Ki at rA2A receptor; cited from earlier work

Chain of rat A2A AR (P30543 whole entry): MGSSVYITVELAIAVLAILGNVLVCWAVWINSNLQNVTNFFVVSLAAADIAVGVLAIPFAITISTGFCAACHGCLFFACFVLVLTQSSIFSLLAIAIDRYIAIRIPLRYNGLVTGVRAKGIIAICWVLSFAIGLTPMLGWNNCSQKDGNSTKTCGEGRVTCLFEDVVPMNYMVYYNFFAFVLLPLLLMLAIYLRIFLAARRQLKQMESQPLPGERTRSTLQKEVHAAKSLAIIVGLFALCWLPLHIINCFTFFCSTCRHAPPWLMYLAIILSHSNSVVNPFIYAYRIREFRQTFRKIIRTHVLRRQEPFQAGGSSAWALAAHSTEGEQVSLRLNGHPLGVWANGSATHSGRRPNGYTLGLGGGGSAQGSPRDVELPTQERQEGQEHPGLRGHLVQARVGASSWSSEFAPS

| SMILES | Ki (rat A2A AR) | Ki (rA2A receptor) |
| --- | --- | --- |
| CCCCCC(=O)Nc1nc(SC)nc2nc(-c3ccco3)nn12 [Compound 11, 2-(2-Furyl)-5-methylthio-7-n-pentylcarbonylamino-[1,2,4]-triazolo[1,5-a]-[1,3,5]triazine] | 180 to 400 nM | – |
| Nc1nc(NCCc2ccc(O)cc2)nc2nc(-c3ccco3)nn12 [ZM241385, 4-(2-[7-amino-2-{2-furyl}{1,2,4}triazolo{2,3-a}{1,3,5,}triazin-5-ylamino]ethyl)phenol] | – | 0.21 to 0.5 nM |
